Results from patent publication US20060155119A1, “Ascomycin crystalline forms and preparation thereof” (priority 2004, published 2006).

Assay: Storing crystalline Ascomycin Form A at 150° C. for 1 hour, solid form checked by PXRD/DSC
Assay type: physicochemical
Settings: solid sample, initial PXRD form A, remark wraps over r7-r8: 'Remained crystalline'
Experimental: The crystalline forms of ascomycin, produced by the methods of the present invention can be analyzed by Powder X-ray diffraction (PXRD) was performed on an X-Ray powder diffractometer, ARL, θ-θ goniometer, Cu-tube, solid state detector with Peltier cooling. The sample holder was a round standard aluminum sample holder with round zero background. Scanning parameters: Range: 2-40 deg.2θ, Continuous Scan, Rate: 3 deg./min.
Ascomycin crystalline forms can also be analyzed by thermal analysis, which can be carried out by […] scanning calorimetry (DSC) and by thermogravimetric analysis (TGA). DSC thermograms can be obtained on a DSC822^e Mettler Toledo instrument (Advanced Instruments, San Juan, Puerto Rico). Sample weight: 3-5 mg; Heating rate: 10° C./min; Number of holes in the crucible: 3. TGA thermograms can be obtained on a Mettler TGA/SDTA 851 instrument (Advanced Instruments, San Juan, Puerto Rico) using a standard Allumina pan. Sample weight: 7-15 mg; Heating rate: 10° C./min.
Starting from Form A having the properties listed in Table 1, incubation at 150° C. for 1 hour produced Ascomycin Form C.

CC[C@@H]1/C=C(\C)C[C@H](C)C[C@H](OC)[C@H]2O[C@@](O)(C(=O)C(=O)N3CCCC[C@H]3C(=O)O[C@H](/C(C)=C/[C@@H]3CC[C@@H](O)[C@H](OC)C3)[C@H](C)[C@@H](O)CC1=O)[C@H](C)C[C@@H]2OC [Form A, Ascomycin]
remarks after storing at 150° C. for 1 hour: Remained
